Paper PMC12707061 (National Science Review, 2025)

Legend:
mPFC VIP neurons [1] = experiment: Patch-clamp recordings of mPFC VIP neurons in slices after in vivo drug injection; set-up: species or system mice; conditions: for resting membrane potential (RMP) of VIP neurons, average: saline controls −58.8 mV
Experimental: The brain was removed quickly after decapitation and immediately put into ice-cold oxygenated NMDG ACSF. A few minutes later, coronal slices containing the mPFC (300 μm thickness for mice) were sectioned in cold ACSF using a vibratome (VT1200 S, Leica) and then transferred into oxygenated NMDG ACSF at 32°C for incubation and recovery for 10–15 min. […] All chemicals were purchased from Sigma–Aldrich (St. Louis, MO, USA).
(§1) All drugs were dissolved in 0.9% saline and administered by intraperitoneal (i.p.) injection.
For in intro brain slices recording, AAV-Ef1α-DIO-mCherry virus was injected in the mPFC for labeling VIP neurons, and a 26-gauge double guide cannula (center-to-center distance 0.80 mm; RWD, China) was subsequently implanted in the same site of Vip-Cre mice.
For mPFC VIP neuron recordings, brain slices were transferred into the recording chamber filled with ACSF. VIP positive neurons were visualized with differential interference contrast optics (DIC, Olympus BX61WI). The recording pipettes (4-5 MΩ) were pulled with a micropipette puller (P97, Sutter Instrument; USA). […] When the whole-cell record was formed, to record the neuronal firing, the neurons were held at I=0 pA under current-clamp mode; to measure the intrinsic membrane properties, the same neurons were held at […] and spikes were induced by increases of current injection (each step was 5 pA, range –10-45 pA). All recordings were performed for 5 minutes typically.
The specific operation is as follows: using the Threshold search function in the Clampfit software Event Detection, setting the baseline and threshold for identifying the action potential, and then automatically identifying and measuring each action potential. The curve of firing was plotted using MATLAB. All events, including the spike numbers, were finally verified by eye.

mice [2] = experiment: TST, FST and OFT in mice with ketamine and pre-treatments; conditions: for locomotion and anxiety-like behaviors during the OFT: 1 h after injection; for effect of pre-treatment on ketamine's decrease of immobility in TST and FST: p-CPA i.p. once per day for 3 days, palonosetron into mPFC 0.5 h before ketamine
Experimental: Behavioral experiments were performed after 3-4 weeks of viral expression.
For behavioral experiments, C57BL/6 mice were recovered for at least 7 days before behavioral testing. Before micro-infusions, a 26-gauge internal injector with 3 mm projection was placed into the guide cannula, connected via PE tubing to a Hamilton micro-syringe driven by hand. […] The injector cannula was removed 3 min after infusion was finished, and corresponding behavioral tests were performed.
The mice were suspended in a computerized device allowing four animals to be recorded at one time, and were separated in a chamber, both acoustically and visually isolated. To ensure mice could not contact or climb with other things, an individual mouse was suspended 50 cm above the floor by a tail tape that was placed approximately 1 cm from the tip of the tail. The activities of the animals were recorded for 6 minutes by a video recorder. The total duration of immobility at the last 4 minutes of testing time was analyzed by one who was blinded to the test.
The FST apparatus was a clear glass tank (40 cm high and 20 cm in diameter) filled with water (25-26 °C), and the water depth was set to ensure mice could not touch the bottom with their tails or hind limbs. Mice were placed individually into the apparatus and allowed to swim for 6 minutes. The mice were considered immobile when floating in the water without struggling and making only those movements necessary to keep their heads above the water. Total immobility times during the last 4 minutes of the 6-minute testing period were analyzed by a researcher blinded to the test.
Mice were placed in a white open field chamber (38 x 38 x 40 cm) built by an acrylic plate in a room with dim light. The movement of each animal was tracked by a video camera positioned directly above the chamber (Jiliang, Shanghai). Time spent in the center zone of the chamber was a measure of anxiety behavior. Mice were allowed to move freely for 5 minutes in the arena. Total distance and center zone time were automatically analyzed by software (Jiliang, Shanghai).

mPFC VIP neurons [3] = experiment: Whole-cell recordings of mPFC VIP neurons with bath application of drugs to brain slices; assay type: cell-based, mice; conditions: for activation (firing) of VIP neurons: bath application, 5-HT 5 μM, AP5 100 μM, slices from normal mice
Experimental: Adult (10–16 weeks old) VIP-Cre-expressing mCherry mice with or without a cannula were firstly anesthetized by being injected intraperitoneally with tribromoethanol (250 mg/kg) and then perfused transcardially with 20 mL of ice-cold N-methyl-D-glucamine (NMDG) artificial cerebrospinal fluid (ACSF) solution (oxygenated with 5% CO2 + 95% O2) containing (mM): 93 NMDG, 93 HCl, 2.5 KCl, 10 MgSO4·7H2O, 1.2 NaH2PO4·2H2O, 30 NaHCO3, 25 glucose, 20 HEPES, 5 sodium ascorbate, 3 sodium pyruvate and 2 thioureas, with 0.5 CaCl2·2H2O added (pH: 7.35, 303 mOsm). The brain was removed quickly after decapitation and immediately put into ice-cold oxygenated NMDG ACSF. A few minutes later, coronal slices containing the mPFC (300 μm thickness for mice) were sectioned in cold ACSF using a vibratome (VT1200 S, Leica) and then transferred into oxygenated NMDG ACSF at 32°C for incubation and recovery for 10–15 min. The brain slices were transferred to a normal oxygenated ACSF solution (126 mM NaCl, 2.5 mM KCl, 2 mM MgSO4·7H2O, 1.25 mM NaH2PO4·2H2O, 25 mM NaHCO3, 10 mM glucose, 2 mM CaCl2) at room temperature for 1 h. All chemicals were purchased from Sigma–Aldrich (St. Louis, MO, USA).
For mPFC VIP neuron recordings, brain slices were transferred into the recording chamber filled with ACSF. VIP positive neurons were visualized with differential interference contrast optics (DIC, Olympus BX61WI). The recording pipettes (4-5 MΩ) were pulled with a micropipette puller (P97, Sutter Instrument; USA). For whole-cell patch-clamp recording, the pipette was filled with an internal solution containing (mM) 133 potassium gluconate, 18 NaCl, 0.6 EGTA, 2 Mg·ATP, 0.3 Na3·GTP, 10 Hepes (pH: 7.20, 280-290 mOsm). […]
To investigate the underlying synergistic effects of 5-HT (5 μM, Sigma) and AP5 (100 μM, Sigma) on neuronal excitability and firing, the two drugs were alone or together continuously perfused into the recording chamber using a medicine delivery pipe after a baseline was recorded for 5 min. The spikes were recorded under […] 1 minute after the drugs were delivered. […]

[4] = test system: mPFC VIP neurons expressing the hM4Di receptor; experiment: Cell-attached recording of hM4Di-expressing mPFC VIP neurons in brain slices; assay type: cell-based, mice; conditions: 10 μM
Experimental: In the chemogenetic inhibition assay, we injected the AAV-DIO-hM4Di-mCherry vector into the bilateral mPFC of VIP-Cre mice. […] Behavioral experiments were performed after mice had been allowed to recover for 3 weeks after viral injection (Fig. 5A).

mice [5] = experiment: MK-801 alone and with fluoxetine: behavioural tests 24 h after injection; assay type: in vivo; conditions: single injection, alone
Experimental: as §1

[6] = test system: 5-HT neurons in the dorsal raphe nucleus (DRN); experiment: c-Fos activation of DRN 5-HT neurons after ketamine; assay type: in vivo, mice; conditions: after ketamine injection
Experimental: (§2) All mice were deeply anesthetized with an overdose of pentobarbital and then transcardially perfused with 0.9% saline solution followed by 4% paraformaldehyde (PFA) in PBS. After 24 h of post-fixation in 4% PFA overnight at 4 °C, brains were subsequently immersed in a 30% sucrose solution for dehydration for 24-48 h. Brains were sectioned coronally at a thickness of 40 μm with a Vibration Microtome (Leica VT1200S). Coronal brain sections were washed in PBS, blocking solution containing 0.5% Triton X-100 and 5% normal bovine serum albumin was dissolved in 1x PBS. After blocking for 1-2 h and washing, brain sections were incubated with the primary antibody rabbit polyclonal anti-c-Fos (1:1000, Synaptic system) for 48 h at 4 °C. After washing, these brain sections were incubated with secondary antibody Alexa Fluor 594-conjugated donkey anti-rabbit IgG (1:1000, Jackson ImmunoResearch) at […]. Cell nuclei were identified using the 4, 6-diamidino-2-phenylindole (DAPI) stain (1:10000, Jackson ImmunoResearch). Imaging was carried out with a digital slide scanner (Olympus, VS120-S6-W) and a confocal microscope (Nikon, Ti-E+A1R SI).

VIP neurons in the mPFC = experiment: c-Fos immunolabeling of mPFC VIP neurons after ketamine; assay type: in vivo, mice; conditions: antidepressant dose; 1.5 h after injection; average
Experimental: (§3) VIP, parvalbumin (PV) and somatostatin (SST) neurons are the three main types of gamma-aminobutyric acid (GABA)ergic interneurons in the mPFC [63].
as §2

PV neurons in the mPFC = experiment: Activation/excitability of mPFC PV neurons after ketamine (c-Fos, patch-clamp); assay type: in vivo, mice; conditions: after ketamine injection
Experimental: as §3, §2

SST neurons in the mPFC = experiment: Activation/excitability of mPFC SST neurons after ketamine (c-Fos, patch-clamp); assay type: in vivo, mice; conditions: after ketamine injection
Experimental: as §3, §2

mPFC 5-HT = experiment: In vivo real-time microdialysis of mPFC 5-HT; set-up: species or system mice; conditions: i.p. 10 mg/kg; during the 15 min after injection; baseline ∼100%
[7] = palonosetron into mPFC before ketamine

NC(Cc1ccc(Cl)cc1)C(=O)O (racemic) [p-CPA, 4-chloro-DL-phenylalanine]
number of spikes in response to depolarizing current pulses (mPFC VIP neurons [1]; 1 h after injection): decreased
resting membrane potential (RMP) of VIP neurons, average (mPFC VIP neurons [1]; 1 h after injection): −69.7 mV
locomotion and anxiety-like behaviors during the OFT (mice [2]): did not affect locomotion or cause anxiety-like behaviors
effect of pre-treatment on ketamine's decrease of immobility in TST and FST (mice [2]): attenuated the ketamine-related decrease in the duration of immobility

NCCc1c[nH]c2ccc(O)cc12 [5-HT, serotonin]
activation (firing) of VIP neurons (mPFC VIP neurons [3]): did not activate VIP neurons

NC(CCCP(=O)(O)O)C(=O)O (centres unmarked) [AP5]
resting membrane potential (RMP) of VIP neurons, average (mPFC VIP neurons [1]; 1 h after injection): –65.1 mV
activation (firing) of VIP neurons (mPFC VIP neurons [3]): did not activate VIP neurons

C[N+]1([O-])CCN(C2=Nc3cc(Cl)ccc3Nc3ccccc32)CC1 [CNO, clozapine N-oxide]
mPFC VIP neuron activity in brain slices [4]: significantly inhibited

C[C@]12N[C@H](Cc3ccccc31)c1ccccc12 [MK-801]
antidepressant effects after 24 h (mice [5]): does not result in antidepressant effects

CNCCC(Oc1ccc(C(F)(F)F)cc1)c1ccccc1 (centres unmarked) [fluoxetine]
antidepressant effects after 24 h (mice [5]): does not result in antidepressant effects

CNC1(c2ccccc2Cl)CCCCC1=O (centres unmarked) [ketamine]
activation of DRN 5-HT neurons [6]: did not activate
VIP neurons activated (c-Fos+ among VIP neurons) (VIP neurons in the mPFC): 38.8%
changes in electrophysiological characteristics of excitability of PV neurons (PV neurons in the mPFC): neither PV nor SST neurons showed any changes
changes in electrophysiological characteristics of excitability of SST neurons (SST neurons in the mPFC): neither PV nor SST neurons showed any changes
number of spikes in response to depolarizing current pulses (mPFC VIP neurons [1]; 1 h after injection): remarkable increase
percentage of firing VIP neurons (mPFC VIP neurons [1]; 1 h after injection, ketamine 10 mg/kg i.p., p-CPA 150 mg/kg once daily 3 days, AP5 40 nmol mPFC, fluoxetine 10 mg/kg i.p.): 75%
resting membrane potential (RMP) of VIP neurons, average (mPFC VIP neurons [1]; 1 h after injection): −44.2 mV
membrane capacitance of VIP neurons (mPFC VIP neurons [1]; firing neurons after ketamine): no change in membrane capacitance

CC12CC3CC(C)(C1)CC(N)(C3)C2 [memantine]
average relative-to-baseline 5-HT levels in the mPFC (mPFC 5-HT): did not show such an effect

O=C1c2cccc3c2[C@H](CCC3)CN1[C@@H]1CN2CCC1CC2 [palonosetron]
percentage of firing VIP neurons (mPFC VIP neurons [1]; palonosetron into mPFC 0.5 h before ketamine i.p., controls ∼10.5%): ~10%
change in RMP of VIP neurons (mPFC VIP neurons [1]; [7]): no change in the RMP
change in membrane capacitance of VIP neurons (mPFC VIP neurons [1]; [7]): moderate increase in membrane capacitance
change in membrane resistance of VIP neurons (mPFC VIP neurons [1]; [7]): no change in membrane resistance
effect on VIP neuron activation by 5-HT combined with AP5 (mPFC VIP neurons [3]; palonosetron 10 μM): blocked the effect of 5-HT combined with AP5
locomotion and anxiety-like behaviors during the OFT (mice [2]): did not affect locomotion or cause anxiety-like behaviors
effect of pre-treatment on ketamine's decrease of immobility in TST and FST (mice [2]): this effect was blocked
